Experimental data: ChEMBL document CHEMBL2074018, “Digoxin up-regulates multidrug resistance transporter (MDR1) mRNA and simultaneously down-regulates steroid xenobiotic receptor mRNA” (Biochem Biophys Res Commun, 2003)

Biological target: ATP-dependent translocase ABCB1 (Homo sapiens, UniProt P08183)
Experiment: TP_TRANSPORTER: up-regulation of MDR1 mRNA in Caco-2 cells
Type: functional, cell-based

Sequence of ATP-dependent translocase ABCB1 (P08183 whole entry): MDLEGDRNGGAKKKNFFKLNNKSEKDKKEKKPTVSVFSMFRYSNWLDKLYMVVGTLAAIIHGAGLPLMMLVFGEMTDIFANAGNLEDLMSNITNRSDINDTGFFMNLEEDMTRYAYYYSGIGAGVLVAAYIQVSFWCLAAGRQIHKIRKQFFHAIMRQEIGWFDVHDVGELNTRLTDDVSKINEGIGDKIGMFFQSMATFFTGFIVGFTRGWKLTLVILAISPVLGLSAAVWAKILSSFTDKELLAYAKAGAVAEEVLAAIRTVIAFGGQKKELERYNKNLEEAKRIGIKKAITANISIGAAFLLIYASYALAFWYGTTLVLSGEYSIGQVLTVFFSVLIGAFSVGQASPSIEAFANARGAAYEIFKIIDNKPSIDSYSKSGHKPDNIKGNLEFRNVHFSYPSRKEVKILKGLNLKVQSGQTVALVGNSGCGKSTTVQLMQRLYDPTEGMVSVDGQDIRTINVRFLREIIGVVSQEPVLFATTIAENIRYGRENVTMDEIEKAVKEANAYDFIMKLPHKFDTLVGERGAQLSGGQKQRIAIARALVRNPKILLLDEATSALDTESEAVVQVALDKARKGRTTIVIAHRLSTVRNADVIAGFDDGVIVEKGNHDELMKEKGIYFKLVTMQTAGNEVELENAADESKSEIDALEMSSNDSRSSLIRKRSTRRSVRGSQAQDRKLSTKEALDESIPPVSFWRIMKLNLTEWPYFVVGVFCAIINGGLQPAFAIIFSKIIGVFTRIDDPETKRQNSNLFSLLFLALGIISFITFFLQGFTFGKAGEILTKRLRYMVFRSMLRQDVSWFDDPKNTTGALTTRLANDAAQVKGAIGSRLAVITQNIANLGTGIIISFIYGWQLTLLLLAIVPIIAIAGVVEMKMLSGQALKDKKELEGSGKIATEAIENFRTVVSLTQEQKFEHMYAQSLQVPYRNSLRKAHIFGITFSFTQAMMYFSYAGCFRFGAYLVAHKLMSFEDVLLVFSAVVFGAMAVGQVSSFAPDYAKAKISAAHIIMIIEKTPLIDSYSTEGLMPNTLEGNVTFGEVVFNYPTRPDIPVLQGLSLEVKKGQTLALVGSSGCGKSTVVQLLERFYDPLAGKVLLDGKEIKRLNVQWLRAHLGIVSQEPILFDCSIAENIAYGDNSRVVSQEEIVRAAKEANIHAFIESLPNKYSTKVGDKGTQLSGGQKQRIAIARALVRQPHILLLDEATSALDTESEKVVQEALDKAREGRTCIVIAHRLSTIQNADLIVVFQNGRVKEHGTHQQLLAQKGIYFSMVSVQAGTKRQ

- Activity: inducer [+]
SMILES: C[C@H]1O[C@@H](O[C@H]2[C@@H](O)C[C@H](O[C@H]3[C@@H](O)C[C@H](O[C@H]4CC[C@@]5(C)[C@H](CC[C@@H]6[C@@H]5C[C@@H](O)[C@]5(C)[C@@H](C7=CC(=O)OC7)CC[C@]65O)C4)O[C@@H]3C)O[C@@H]2C)C[C@H](O)[C@@H]1O [DIGOXIN]
